molecular target: T1, hen egg-white lysozyme (HEWL) (Gallus gallus, UniProt P00698); experiment: intrinsic Trp fluorescence quenching titration ([…] nm), two-site fit in DynaFit; assay type: binding; conditions: pH 2.0, 37 °C, 2 mM sodium chloroacetate, 10 µM HEWL; stronger of two independent sites; cationic ligand
T1 construct: gene LYZ
T1 sequence (P00698 19-147): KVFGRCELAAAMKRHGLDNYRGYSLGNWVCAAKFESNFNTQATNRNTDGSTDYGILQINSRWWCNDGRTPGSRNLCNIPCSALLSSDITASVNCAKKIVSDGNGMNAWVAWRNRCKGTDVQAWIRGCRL

| Ka (M^-1).10^-3( ^a) | Structure (SMILES) |
| --- | --- |
| (9.3 ± 0.2)·10^3 | Cc1ncccc1O [2 m-3HP, 3-hydroxy-2-methylpyridine] |
| (8.9 ± 0.2)·10^3 | Cc1ccc(O)c(C)n1 [2,6dm-3HP, 3-hydroxy-2,6-dimethylpyridine] |
| (7.4 ± 0.1)·10^3 | Cc1ccc(O)cn1 [6 m-3HP, 3-hydroxy-6-methylpyridine] |

From publication PMC4500996, “Ortho-methylated 3-hydroxypyridines hinder hen egg-white lysozyme fibrillogenesis” (Scientific Reports, 2015)
